Reference: article PMC9847679, “The anti-breast cancer stem cell properties of gold(I)-non-steroidal anti-inflammatory drug complexes” (Chemical Science, 2022)

Assays:
HMLER-shEcad cells = assay: Monolayer cytotoxicity (MTT assay), HMLER-shEcad cells; assay type: cell-based, human
Excerpt: (§1) Cell Lines and Cell Culture Conditions. The human mammary epithelial HMLER and HMLER-shEcad cell lines were kindly donated by Prof. R. A. Weinberg (Whitehead Institute, MIT). The human epithelial breast MCF10A, breast adenocarcinoma MDA-MB-231 and MDA-MB-468, murine epithelial breast 4T1, and embryonic kidney HEK 293 cell lines were acquired from American Type Culture Collection (ATCC, Manassas, VA, USA).
(§2) HMLER, HMLER-shEcad, and MCF10A cells were maintained in Mammary Epithelial Cell Growth Medium (MEGM) with supplements and growth factors (BPE, hydrocortisone, hEGF, insulin, and gentamicin/amphotericin-B). MDA-MB-231, MDA-MB-468, 4T1, and HEK 293 cells were maintained in Dulbecco's Modified Eagle's Medium (DMEM) supplemented with fetal bovine serum (10 %) and penicillin/streptomycin (1 %). The cells were grown at 310 K in a humidified atmosphere containing 5% CO2.
(§3) Monolayer Cytotoxicity Studies. Exponentially growing cells were seeded at a density of approximately 5 × 10^3 cells per well in 96-well flat-bottomed microplates and allowed to attach for 24 h prior to addition of compounds. Various concentrations of the test compounds (0.0004-100 μM) were added and incubated for 72 h at 37 °C (total volume 200 μl). Stock solutions of the compounds were prepared as 10 mM DMSO solutions and diluted using cell […]
(§4) media. The final concentration of DMSO in each well was ≤1 %. After 72 h, 20 μl of MTT (4 mg mL-1 in PBS) was added to each well and the plates incubated for an additional 4 h at 37 °C. The media/MTT mixture was eliminated and DMSO (100 μl per well) was added to dissolve the formazan precipitates. The optical density was measured at 550 nm using a 96-well multiscanner autoreader. Absorbance values were normalised to (DMSO-containing) control wells and plotted as concentration of test compound versus % cell viability. IC50 values were interpolated from the resulting dose dependent curves. The reported IC50 values are the average of three independent experiments (n = 18). […]
(§5) After incubation for 16 […]
(§6) h, the fluorescence of the solutions was read at 590 nm (λex = 560 nm). Viable mammospheres reduce the amount of the oxidised TOX8 form (blue) and concurrently increase the amount of the fluorescent TOX8 intermediate (red), indicating the degree of mammosphere cytotoxicity caused by the test compound. […]
(§7) Cellular Uptake. To measure the cellular uptake of 1-3 about 1 million HMLER-shEcad cells were treated with 1-3 (0.25 μM) at 37 °C for 24 h. After incubation, the media was removed, the cells were washed with PBS (2 mL × 3) and harvested. The number of cells was counted at this stage, using a haemocytometer. This mitigates any cell death induced by 1-3 at the administered concentration and experimental cell loss. The cellular pellets were dissolved in 65% HNO3 (250 µL) overnight. A cellular pellet of HMLER-shEcad cells treated with 1 was also used to determine the gold content in the nuclear, cytoplasmic and membrane fractions. The Thermo Scientific NE-PER Nuclear and Cytoplasmic Extraction Kit was used to extract and separate the nuclear, cytoplasmic and membrane fractions. The fractions were dissolved in 65% HNO3 (250 µL final volume) overnight. All samples were diluted 17-fold with water and analysed using inductively coupled plasma mass spectrometry (ICP-MS, Thermo Scientific ICAP-Qc quadrupole ICP mass spectrometer). Gold levels are expressed as mass of Au (ng) per million cells. Results are presented as the mean of four determinations for each data point.
(§8) Intracellular ROS Assay. […]

MDA-MB-231 cells = assay: Monolayer cytotoxicity (MTT assay), MDA-MB-231 cells; assay type: cell-based, human; details: 72 h incubation
Excerpt: as §1, §2, §3
(§9) media. The final concentration of DMSO in each well was ≤1 %. […] The optical density was measured at 550 nm using a 96-well multiscanner autoreader. Absorbance values were normalised to (DMSO-containing) control wells and plotted as concentration of test compound versus % cell viability. […]
(§10) h, the fluorescence of the solutions was read at 590 nm (λex = 560 nm). […]
(§11) Cellular Uptake. […] The number of cells was counted at this stage, using a haemocytometer. […] All samples were diluted 17-fold with water and analysed using inductively coupled plasma mass spectrometry (ICP-MS, Thermo Scientific ICAP-Qc quadrupole ICP mass spectrometer). Gold levels are expressed as mass of Au (ng) per million cells. […]

[1] = test system: HMLER-shEcad mammospheres; assay: Mammosphere viability assay (TOX8); assay type: cell-based, human; details: 5 days incubation
Protocol: Tumorsphere Formation and Viability Assay.
in ultralow-attachment 96-well plates (Corning) and incubated in MEGM supplemented with B27 (Invitrogen), 20 ng mL-1 EGF and 4 μg mL-1 heparin (Sigma) for 5 days. […] The viability of the mammospheres was determined by addition of a resazurin-based reagent, TOX8 (Sigma). After incubation for 16 h, the fluorescence of the solutions was read at 590 nm (λex = 560 nm). Viable mammospheres reduce the amount of the oxidised TOX8 form (blue) and concurrently increase the amount of the fluorescent TOX8 intermediate (red), indicating the degree of mammosphere cytotoxicity caused by the test compound. Fluorescence values were normalised to DMSO-containing controls and plotted as concentration of test compound versus % mammospheres viability. IC50 values were interpolated from the resulting dose dependent curves. The reported IC50 values are the average of three independent experiments, each consisting of two replicates per concentration level (overall n = 6).

[2] = Water-octanol partition coefficient (shake-flask, UV-vis); assay type: physicochemical; details: room temperature 24 h
Protocol: Measurement of water-octanol partition coefficient (LogP). The LogP values for 1-8 were determined using the shake-flask method and UV-vis spectroscopy. The 1-octanol used in this experiment was pre-saturated with water. An aqueous solution of 1-8 (500 μL, 100 μM) was incubated with 1-octanol (500 μL) in a 1.5 mL tube. The tube was shaken at room temperature for 24 h. The two phases were separated by centrifugation and the 1-8 content in each phase was determined by UV-vis spectroscopy. […]

HMLER cells = assay: Monolayer cytotoxicity (MTT assay), HMLER cells; assay type: cell-based, human
Excerpt: as §1, §2, §3, §4, §5, §6, §7, §8

MDA-MB-468 cells = assay: Monolayer cytotoxicity (MTT assay), MDA-MB-468 cells; assay type: cell-based, human; details: 72 h incubation
Excerpt: as §1, §2, §3, §4
Cellular Uptake. […]

4T1 cells = assay: Monolayer cytotoxicity (MTT assay), 4T1 cells; assay type: cell-based, murine; details: 72 h incubation
Excerpt: as §1, §2, §3, §9, §10, §11

[3] = Solution stability by UV-vis and NMR spectroscopy; assay type: physicochemical
Protocol: The stability of 1–8 in solutions relevant for cell-based studies was determined by UV-vis spectroscopy studies. […] The DMSO- and PBS-stable complexes 1–4 (50 μM) were also deemed stable in MEGM : DMSO (1 : 1) over the course of 24 h at 37 °C (Fig. S22 ^†). Time course ^31P{^1H} and ^1H NMR spectroscopy studies were carried out to confirm the solution stability of 1–4. […] The ^1H NMR spectra for 1–3 (10 mM) remained unchanged over the same period (Fig. S26–S28 ^†). […] In the ^31P{^1H} NMR spectrum, the signal for intact 4 (at 27.05 ppm) completely disappeared after 48 h and was replaced by a signal corresponding to triphenylphosphine oxide (at 25.47 ppm) (Fig. S29 ^†). The formation of triphenylphosphine oxide was also detected in the ^1H NMR spectrum (Fig. S30 ^†). Additionally, plating of elemental gold was observed over the course of 72 h.

COX-2 = COX-2 expression assay (flow cytometry); assay type: cell-based, human; details: LPS 2.5 μM 24 h pre-treatment; 1 at IC50 value or indomethacin 20 μM, 48 h
Protocol: COX-2 Expression Assay. HMLER-shEcad cells were seeded in 6-well plates (at a density […]
indomethacin (20 μM) and incubated for a further 48 h. The cells were then harvested by trypsinisation, fixed with 4% paraformaldehyde (at 37 °C for 10 min), permeabilised with ice-cold methanol (for 30 min), and suspended in PBS (200 μL). […]
labelled anti-COX-2 antibody (5 μL) was then added to the cell suspension and incubated in the dark for 1 h. The cells were then washed with PBS (1 mL) and analysed using a FACSCanto II flow cytometer (BD Biosciences) (10,000 events per sample were acquired) at the University of Leicester FACS Facility. The FL1 channel was used to assess COX-2 expression. Cell populations were analysed using the FlowJo software (Tree Star).
COX-2 Inhibition Enzyme Immunoassay (EIA). […]
(ovine) Inhibitor Screening Assay (Cayman Chemicals).” The assay was performed according to the manuf acturer’s instructions using a 96-well plate set up.

[4] = Homo sapiens, within concentration range tested

O=C([O][Au][PH](c1ccccc1)(c1ccccc1)c1ccccc1)c1cc(-c2ccc(F)cc2F)ccc1O [complex 2]
IC50 (HMLER-shEcad cells; 72 h incubation, MTT): 0.138 ± 0.007 µM
IC50 (MDA-MB-231 cells): 5.79 ± 0.79 µM
IC50 [1]: 8 ± 1 µM
LogP value [2]: 1.54 ± 0.44
IC50 (HMLER cells; 72 h incubation, MTT): 0.221 ± 0.003 µM
IC50 (MDA-MB-468 cells): 7.12 ± 0.1 µM
IC50 (4T1 cells): 7.25 ± 0.4 µM

COc1ccc2cc([C@H](C)C(=O)[O][Au][PH](c3ccccc3)(c3ccccc3)c3ccccc3)ccc2c1 [complex 3]
IC50 (HMLER-shEcad cells; 72 h incubation, MTT): 0.063 ± 0.006 µM
IC50 (MDA-MB-231 cells): 7.77 ± 0.41 µM
IC50 [1]: 8 ± 1 µM
IC50 (HMLER cells; 72 h incubation, MTT): 0.183 ± 0.001 µM
IC50 (MDA-MB-468 cells): 6.48 ± 1.43 µM
IC50 (4T1 cells): 10.1 ± 0.86 µM

O=C(Cc1ccccc1Nc1c(Cl)cccc1Cl)[O][Au][PH](c1ccccc1)(c1ccccc1)c1ccccc1 [complex 4]
stability in DMSO-d6 (31P{1H} and 1H NMR) ([3]; 10 mM, 72 h): unstable in solution

O=C([O][Au][PH](c1ccccc1)(c1ccccc1)c1ccccc1)c1ccccc1O [complex 5]
stability in PBS : DMSO (1 : 1) (UV-vis) ([3]; 50 μM, 24 h, 37 °C): but not 5, was stable
LogP value [2]: 0.75 ± 0.01

Cc1c(Cl)cccc1Nc1ccccc1C(=O)[O][Au][PH](c1ccccc1)(c1ccccc1)c1ccccc1 [complex 6]
LogP value [2]: 1.17 ± 0.37

Cc1cccc(Nc2ccccc2C(=O)[O][Au][PH](c2ccccc2)(c2ccccc2)c2ccccc2)c1C [complex 7]
LogP value [2]: 0.83 ± 0.23

CC(C)Cc1ccc(C(C)C(=O)[O][Au][PH](c2ccccc2)(c2ccccc2)c2ccccc2)cc1 (stereo not shown) [complex 8]
LogP value [2]: 1.19 ± 0.01

COc1ccc2c(c1)c(CC(=O)O)c(C)n2C(=O)c1ccc(Cl)cc1 [indomethacin]
IC50 (HMLER-shEcad cells; [4]): > 100 µM
COX-2 expression (COX-2): decreased
IC50 (HMLER cells; [4]): > 100 µM
